Results: patent US9802902B2, “Antifungal compound” (priority 2012, dated 2017)

Assays:
[1] = test system: C. albicans biofilms supported on contact lenses; test: Biofilm susceptibility (in vitro keratitis model treatment); assay type: cell-based, Candida albicans
Experimental: The contact lenses were washed with PBS and immersed in YM broth overnight before they were punched into smaller pieces of 2 mm in diameter. To grow C. albicans biofilms, the lenses were placed in 6-well tissue culture plates with 4 mL of yeast suspension (10^7 CFU/mL) and incubated for 3 hours at 22° C. The contact lenses were gently washed with PBS to remove non-adherent yeast cells and immersed in YM broth for 48 hours at 22° C. with shaking at 100 rpm. Biofilms were quantified using direct plate counting. The yeast cells on contact lens were detached and dispersed in PBS by ultrasonication for 3 minutes. After making 10-fold dilutions, 20-μL sampling aliquots were plated on solid Lysogeny broth (LB) plate and incubated at 22° C. for 48 hours before the colony number was counted for determination of surviving CFU. Data from triplicate plate counts were averaged.
The C. albicans biofilms supported on contact lenses were transferred to fungicidal agent-containing PBS, and incubated at 22° C. for 24 hours. The biofilms were ultrasonicated for 3 minutes, and then serially diluted in PBS. The viable yeast cells were enumerated as described above.

C. albicans keratitis = test: Contact lens-associated C. albicans keratitis model in mouse; assay type: in vivo; conditions: 1000 μg/mL topical eye drops; for corneal counts of C. albicans: 6 eyeballs homogenized; for clinical score (slit lamp, grade 0-4): after treatment, ± standard deviation
Text: 8-week-old adult C57BL/6 mice (18-22 g) were used for animal studies. All mice eyes were examined for absence of ocular pathology before experiments were initiated. The experimental protocol was approved by the Institutional Animal Care and Use Committee of Biological Resource Centre, Agency for Science, Technology and Research (A*STAR), Singapore.
The black mouse keratitis model was established by employing contact lens biofilm infection, which is described as follows. The mice were anesthetized by ketamine (150 mg/kg) and xylazine ([…]) via intraperitoneal injection (I.P.). Additional topical anesthetic in the form of 0.5% tetracaine hydrochloride eye drops (Bausch & Lomb, Tampa, Fla.) was also administered.
A total of 45 mice were used in this study. A 1-mm filter paper disc moistened with 99% 1-heptanol (Sigma-Aldrich, Lausanne, Switzerland) was placed on the center of the cornea for 40 seconds. The corneal epithelium was traumatically wiped out and the eyes were rinsed with PBS to remove any remaining traces of 1-heptanol. A 2 mm-diameter punch from the contact lense with C. albicans biofilm was then placed on the denuded cornea surface. The contact lenses were kept inside the eyes by closing the eye lids with silk sutures. The C. albicans cells were grown on the eyeball 18 hours after inoculation; eye ulcer with a leathery, tough, raised surface was observed. A disease grading from 0 (no disease) to 4 (severe disease) was established for evaluating treatment efficacy (see Table 1 below). The mice were immune suppressed by subcutaneous injection of cyclophosphamide (Sigma-Aldrich, […]).
To investigate the potential application of these two compounds in fungi keratitis treatment, C. albicans keratitis model was established using mouse. The contact lenses with C. albicans biofilm were kept inside the mice eyes by closing the lids with silk sutures. 18 hours after inoculation, the C. albicans cells were grown on the eyeball. Eye ulcer with a leathery, tough, raised surface was observed. The animals were randomly treated with 5 topical eye drop solutions: saline solution (control), 1000 μg/mL of PIM-45, 1000 μg/mL of IBN-1, 1000 μg/mL of amphotericin B, and 1000 μg/mL of fluconazole. Eye drops (20 μl each) were administered to the mice every 5 minutes during the first hour and every 30 minutes during the next 7 hours. After a pause of 16 hours, eye drops were administered at hourly intervals for another 8 hours. All mice were sacrificed 16 hours after the administration of the last eye drop. The treated eyeballs were collected immediately; three eyeballs from each group were collected for histology, and the remaining 6 eyeballs were homogenized for quantitative fungal recovery study. The fixed eyeballs were embedded in paraffin, sectioned and stained with Grocott's methenamine silver by standard protocol.

SMILES | destruction of C. albicans biofilm ([1]; at 250 ppm) | hyphal invasion into cornea (histology) (C. albicans keratitis) | corneal counts of C. albicans (C. albicans keratitis) [lg CFU/eye] | clinical score (slit lamp, grade 0-4) (C. albicans keratitis) | effective concentration in killing biofilm-grown yeast cells ([1]; C. albicans biofilm on contact lens, PBS, 22° C., 24 hours) [ppm]
OC(Cn1cncn1)(Cn1cncn1)c1ccc(F)cc1F [fluconazole] | only slightly destroyed | fungal hyphae extended through the epithelium and into the anterior stroma | 5.1 | 3.5±0.5 | 
C[C@@H]1[C@H](O)[C@@H](C)/C=C/C=C/C=C/C=C/C=C/C=C/C=C/[C@H](O[C@@H]2O[C@H](C)[C@@H](O)[C@H](N)[C@@H]2O)C[C@@H]2O[C@](O)(C[C@@H](O)C[C@@H](O)[C@H](O)CC[C@@H](O)C[C@@H](O)CC(=O)O[C@H]1C)C[C@H](O)[C@H]2C(=O)O [amphotericin B] |  | reduced the maximal depth of hyphal invasion into cornea | 3.3 | 2.2±0.4 | 250
